Columns and labels:
[1] = tested on: 25-50 lb pigs fed vomitoxin-contaminated corn; conditions: P<0.01
[2] = tested on: pigs; conditions: cited from earlier work
[3] = tested on: 66-278 lbs pigs; assay: Growth performance of 66-278 lbs pigs fed sodium metabisulfite in clean diets (F6_G07_01); type: in vivo; conditions: level increased from 0 to 0.5 to 1.0% in non-vomitoxin contaminated diets
Description: The data presented in Table 2 confirms that toxic effects begin to occur between 0 and 0.5% sodium metabisulfite in the diet.

[4] = Destruction of vomitoxin by sodium metabisulfite in vitro at two pH levels
Method: Sodium metabisulfite was tested for its ability to destroy vomitoxin in vitro at different pH levels. […] For example, when tested at 10 lb/ton, sodium metabisulfite destroyed 70% of the measurable vomitoxin at pH 6.5, but none at pH 3.0. At 20 lbs/ton sodium metabisulfite destroyed over 97% of the vomitoxin at pH 6.5 but only 41% at pH 3.0. Destruction levels less than 10% are considered to be random variation in this assay and not related to treatment. […] Although the levels of sodium metabisulfite required to destroy vomitoxin in this in vitro assay are higher than the “safe” level of 0.35% determined in a previous referenced feeding trial in pigs, other studies (Tables 1 and 3) clearly show positive effects of sodium metabisulfite at levels of 0.125 to 0.25% in vomitoxin-contaminated diets.

[5] = tested on: pigs; conditions: feeding to pigs; cited from earlier work
[6] = diet containing approximately 5 ppm vomitoxin, 25-55 lb pigs
[7] = vomitoxin-contaminated diet, 5 to 20 lbs/ton of diet (0.25 to 1.0%)

For CC1=C[C@H]2O[C@@H]3[C@H](O)C[C@](C)([C@@]2(CO)[C@H](O)C1=O)[C@]31CO1 [Vomitoxin, deoxynivalenol], the “Reduction of daily feed intake” value [1, 6] is listed as 20%, the “Reduction of growth rate” value [1, 6] is listed as 15% and the “Vomitoxin level resulting in complete feed refusal, vomiting, immune suppression, and gastrointestinal lesions” value [2] is listed as “above 5 ppm”.
In the case of O=S([O-])S(=O)(=O)[O-].[Na+].[Na+] [sodium metabisulfite, Sodium metabisulfite], the “Average daily feed intake (effect in words)” value [3] was “linearly reduced”, the “% destruction of vomitoxin” value ([4]; pH 3.0, metabisulfite 2.5 lbs/ton) was 4.2% and the “% destruction of vomitoxin” value ([4]; pH 3.0, metabisulfite 5 lbs/ton) was 0.9%. The “% destruction of vomitoxin” value ([4]; pH 3.0, metabisulfite 20 lbs/ton) was 41%, the “% destruction of vomitoxin” value ([4]; pH 6.5, metabisulfite 2.5 lbs/ton) was 0.0% and the “% destruction of vomitoxin” value ([4]; pH 6.5, metabisulfite 5 lbs/ton) was 0.0%. The “% destruction of vomitoxin” value ([4]; pH 6.5, metabisulfite 10 lbs/ton) was 70%, the “Average daily feed intake (ADFI) (effect in words)” value [1, 7] was “improves” and the “Average daily gain (ADG) (effect in words)” value [1, 7] was “improves”. The “"no-effect" level (no toxic effects)” value [5] was 0.35 % of the diet.

Source: patent US9980910B2, “Enteric-coated sodium metabisulfite livestock feed additive for vomitoxin detoxification” (priority 2010, dated 2018)
